# pIC50: −log10 of the molar value. Calls of active or inactive are those of the source. The rule behind the calls is not given here.
# Experiment: blockers of an Epstein-Barr virus protein-peptide interaction – biochemical, fluorescence polarization, dose response (AID 1419)
# Details: cell-free protein-peptide binding, 2 h; for fold change: measured here: P channel fold over control, at 54 µM
Compound,IC50,fold change,pIC50
CC(=O)Nc1nc(C)c(-c2csc(Nc3cccc([N+](=O)[O-])c3)n2)s1,> 54 µM (inactive),0.71,–
Oc1[nH]c2ccccc2c1N=Nc1ccccc1,–,21.6,4.73
COc1ccc(Cl)cc1CN1CCN(c2nc(C)cc(C)c2C#N)CC1,–,2.25,4.72
Cc1cccc(N=Nc2c(O)[nH]c3ccc(F)cc23)c1,–,12,5.69
Cn1c(=O)c2[nH]c(-c3ccccc3Cl)c(O)c2n(C)c1=O,–,2.61,5.70
CC(O)CCc1nc2ccc(C(=O)O)cc2[nH]1 (stereo not drawn),> 54 µM (inactive),0.983,–
Cn1nc([N+](=O)[O-])c(C(C#N)c2nc3ccccc3n2C)c(Cl)c1=O (stereo not drawn),–,2.35,5.62
CCOc1ccc(Cn2c3ccc(OC)cc3c3nc4ccccc4nc32)cc1,–,6.17,5.94
Cc1cc(/C=C(/C#N)c2nc3ccccc3[nH]2)c(C)n1-c1cc(C(=O)O)cc(C(=O)O)c1,–,23.1,5.53
Cc1cc(C(F)(F)F)n2nc(-c3sccc3-n3cccc3)cc2n1,> 54 µM (inactive),0.957,–
Cc1cc(NS(=O)(=O)c2ccc(NC(=O)c3cc4cc(Br)ccc4oc3=O)cc2)no1,–,1.15,4.86
CN(c1ncc(C(F)(F)F)cc1Cl)N1C(=O)c2cccc(N)c2C1=O,–,1.88,5.42
NC(=O)c1c(NC(=O)Cn2nc(C(=O)O)c3ccccc3c2=O)sc2c1CCCC2,> 54 µM (inactive),1.01,–
COc1cc([N+](=O)[O-])ccc1-c1ccc(/C=N/NC(=O)c2ccccc2O)o1,> 54 µM (inactive),0.5,–
N=C1/C(=C/c2ccc(-c3cccc(C(=O)O)c3)o2)C(=O)N=C2SC=C(c3ccccc3)N12,–,1.36,5.42
C=CCc1cccc(C=Nc2cc(Br)ccc2O)c1O,–,27.4,5.24
Cc1nn(-c2ccccc2)c2c1C(c1ccccc1)C(C#N)=C(N)O2 (stereo not drawn),> 54 µM (inactive),1.01,–
COc1ccc(N=Cc2cc(Cc3ccccc3Cl)cc([N+](=O)[O-])c2O)cc1OC,–,2.41,4.86
CCC1(CC)NC(=O)N(CC(=O)Nc2sc3c(c2C(N)=O)CCC3)C1=O,> 54 µM (inactive),1.23,–
Cc1c2ccccc2nc2c(F)c(N(C)C)c(F)c(F)c12,–,8.81,> 6.38

Compound,IC50,fold change,pIC50
COC(=O)c1cc2c(C)c(C)c3ccccn3c-2c1C(=O)OC,–,2.38,5.44
CC(=O)N/N=C/c1cc(C(C)C)cc(/C=N/NC(C)=O)c1O,–,4.18,5.55
COC(=O)c1cc2c(-c3ccccc3)cc3ccccn3c-2c1C(=O)OC,–,1.65,4.57
O=C(CSc1n[nH]c(=O)[nH]c1=O)Nc1ccc2c(c1)C(=O)c1ccccc1C2=O,–,1.21,5.03
CCn1c2ccccc2c2cc(NC(=O)c3ccc(=O)oc3)ccc21,> 54 µM (inactive),1.77,–
CCOc1ccc(-n2c(O)c(C=Nc3ccc(N(CC)CC)cc3)c(=O)[nH]c2=O)cc1,–,9.37,5.14
Cc1cccc2cc(/C=C3\N=C(c4ccccc4)OC3=O)c(N3CCOCC3)nc12,–,12.5,4.88
Cc1ccc(N=Nc2[nH]c3ccccc3c2O)cc1,–,27,5.31
O=C(CSc1nc2ncccc2[nH]1)Nc1ccc2c(c1)OCO2,> 54 µM (inactive),1.02,–
N#Cc1c2nc3ccccc3nc2n2cc(NC(=O)c3ccc(F)cc3)ccc12,–,0.583,5.38
Nc1cc2nsnc2cc1Br,–,1.84,4.54
COc1ccc2nc(N3C(=O)/C(=C/c4ccc(Cl)cc4)NC3=S)sc2c1,> 54 µM (inactive),1.37,–
CC1=Nc2ccccc2/C1=C\c1nc(-c2ccc(F)cc2)oc1O,–,19,5.77
CCn1cc(C(=O)NCc2ccccn2)c(=O)c2cc(S(=O)(=O)N3CCCCC3)ccc21,–,4.52,6.13
O=C1NC(=O)C2=Cc3ccc(O)cc3OC2(O)N1 (stereo not drawn),–,100,> 6.38
Cc1ccccc1NC(=O)CSc1ccsc1[N+](=O)[O-],–,1.04,4.82
COc1ccc(NC(=O)c2sc3nc(-c4cccnc4)ccc3c2N)cc1,–,6.91,5.61
CN1CCN(C2=Nc3c(Cl)cc(Cl)c4cccc2c34)CC1,–,3.09,5.03
O=C(CSc1nnc(SCc2ccccc2)s1)N/N=C/C=C\c1ccco1,> 54 µM (inactive),1.04,–
CC(C)(CCl)C(=O)Nc1ccc(OC(F)(F)F)cc1,> 54 µM (inactive),1.14,–

Compound,IC50,fold change,pIC50
COc1cc(C2C(C#N)=C(N)OC3=C2C(=O)CCC3)c([N+](=O)[O-])cc1OC (stereo not drawn),> 54 µM (inactive),1.22,–
Nn1c(Cc2ccccc2F)nnc1SCC(=O)N1CC(=O)Nc2ccccc21,> 54 µM (inactive),1,–
Cn1c(-c2ccc(C=O)s2)nc2c3ccccc3c3ccccc3c21,–,14.6,5.39
O=C1c2ccccc2-c2ncnc3c(N4CCOCC4)cc(N4CCOCC4)c1c23,> 54 µM (inactive),1.1,–
CCn1c(O)c(/C=N/N=C/c2ccccc2)c2ccc(C3=NNC(=O)CC3)cc21,–,9.01,4.83
Cc1ccc(NC2=Nc3ccccc3N3C2=Nc2c(c(C)nn2-c2ccccc2)C3c2ccc(O)c(O)c2)cc1 (stereo not drawn),–,2.84,5.47
CC(=O)Nc1ccc(NC2=Nc3ccccc3N3C2=Nc2c(c(C)nn2-c2ccccc2)C3c2ccccc2)cc1 (stereo not drawn),–,3.9,5.39
COc1ccc(CCNC(=O)COc2nsnc2N2CCOCC2)cc1OC,> 54 µM (inactive),1.22,–
CN(C(=O)COC(=O)c1cc(-c2ccco2)nc2ccccc12)C1CCS(=O)(=O)C1 (stereo not drawn),–,0.9,5.54
CCN(CC)c1ccc(N=Cc2c(O)n(CCc3ccc(OC)c(OC)c3)c(=O)[nH]c2=O)cc1,> 54 µM (inactive),5.55,–
Cc1ccc(N2C(=O)c3cccc4c(N5CCN(C)CC5)ccc(c34)C2=O)c2cccnc12,–,31.9,> 6.38
CC(=C/c1ccccc1)/C=N/NC(=O)c1cnccn1,> 54 µM (inactive),1.1,–
Oc1oc(-c2ccccc2)nc1C=Nc1cccc2ccccc12,–,3.16,5.13
Cc1ccc([N+](=O)[O-])cc1N=Nc1c(-c2ccc([N+](=O)[O-])cc2)[nH]n(C(N)=S)c1=O,–,1.04,5.74
COc1cc(C2C=C(c3cccs3)Nc3ncnn32)cc(OC)c1OC (stereo not drawn),–,13.5,> 6.38
CCCSCC(=O)Nc1ncc2c(n1)-c1ccccc1CC2,–,2.7,5.28
CCN(CC)c1ccc(C=C2C(=O)OC(c3ccccc3)OC2=O)cc1 (stereo not drawn),–,10.8,4.84
O=c1cc(C(F)(F)F)c2cc3c4c(c2o1)CCCN4CCC3,–,57.5,> 6.38
O=C1c2cccc3c(N4CCCCC4)ccc(c23)C(=O)N1c1ccccn1,–,11.5,> 6.38
